Experimental findings from US20110189686A1, “SCREENING FOR MODULATORS OF CYP2B15 AND/OR GPD1 FOR THE TREATMENT OF ACNE, OF SEBORRHOEIC DERMATITIS OR OF HYPERSEBORRHOEA” (Galderma Research & Development, priority 2008, published 2011) are described below.

The subject of data set [1] is CYP2B15. The experiment in a line: Real-time PCR of CYP2B15 expression in rat sebaceous gland (epidermal split) after topical PPARgamma agonist, kinetics. Format: in vivo. The note with it: topical 1% in acetone, female FUZZY rats, standardized to 18S, versus carrier group. An excerpt:
• Strain: Ico:HSd:FUZZY-fz • Gender: female • Age: 10 weeks Number per batch: 40 (8 animals per group) Treatment: Route of administration: topical • Compound/batch: PPARgamma agonists: • A: 5-{4-[2-(methylpyridin-2-ylamino)ethoxy]benzyl}thiazolidine-2,4-dione • B: 2-(methoxyethoxymethoxy)naphthalene-2-carboxylic acid [4′-(2,4-dioxothiazolidin-5-ylmethyl)biphenyl-3-ylmethyl]methylamide or rosiglitazone • C: (S)-2-ethoxy-3-{4-[6-(3-heptyl-1-methylureido)pyridin-2-yl]phenyl}propionic acid • Doses: 1% • Carrier: acetone (001) • Duration: 96 hours Method of evaluation: The animals are weighed at the beginning and at the end of the study. Skin biopsies are taken (6 samples of skin excised per rat) in order to analyze the expression of the genes (RNA extraction, reverse transcriptase and real-time PCR). The samples are stored at 4° C. overnight before incubation in 1 M sodium bromide (NaBr) for 2 hours at 37° C. After incubation, the samples are separated into epidermis or dermis. The epidermal samples are stored at […] Under these conditions, the sebaceous glands are in the epidermal split. PCRs are carried out, beginning with the cDNAs originating from the epidermal splits containing sebaceous glands from control rats or rats treated with a PPARγ agonist: the mRNA is extracted using a column and quantified. The quality of the mRNAs is measured and is represented by the 18S/28S ratio. The results are standardized with respect to 18S, expressed as relative induction versus untreated animals (carrier group). The statistical analysis is obtained using internal software based on a modified Monte Carlo statistical analysis.
In general terms: Quantitative PCR measures a nucleic acid by following its amplification.

Data set [2] concerns GPD1. The experiment in a line: Real-time PCR of GPD1 expression in rat sebaceous gland (epidermal split) after topical PPARgamma agonist, kinetics. In kind it is in vivo. The note with it: topical 1% in acetone, female FUZZY rats, standardized to 18S, versus carrier group. The procedure:
Skin biopsies are taken (6 samples of skin excised per rat) in order to analyze the expression of the genes (RNA extraction, reverse transcriptase and real-time PCR). The samples are stored at 4° C. overnight before incubation in 1 M sodium bromide (NaBr) for 2 hours at 37° C. After incubation, the samples are separated into epidermis or dermis. The epidermal samples are stored at 20° C. Under these conditions, the sebaceous glands are in the epidermal split. PCRs are carried out, beginning with the cDNAs originating from the epidermal splits containing sebaceous glands from control rats or rats treated with a PPARγ agonist: the mRNA is extracted using a column and quantified. The quality of the mRNAs is measured and is represented by the 18S/28S ratio. The results are standardized with respect to 18S, expressed as relative induction versus untreated animals (carrier group). The statistical analysis is obtained using internal software based on a modified Monte Carlo statistical analysis.

The subject of data set [3] is GPD1. Nature of the data set: Affymetrix transcriptome measurement of GPD1 expression in Fuzzy rat epidermal split after 8 days of topical treatment. In kind it is in vivo. Particulars: GPD1 mRNA (1371363_at), female FUZZY rats, topical 1%, once a day for 8 days, control condition 66.
For data set [4], the system named is CYP2B15. Nature of the data set: Affymetrix transcriptome measurement of CYP2B15 expression in Fuzzy rat epidermal split after 8 days of topical treatment. The note with it: topical 1%. The procedure: The studies are carried out in female Fuzzy rats (Hsd: FUZZY-fz) 10 weeks old at the beginning of the study. The animals are treated at a dose of 1% (PPARg agonist Rosiglitazone in solution in acetone) once a day for 8 days. Two hours after the final treatment, the animals are sacrificed by euthanasia and the skin on the back is removed. After incubation in dispase, the epidermis carrying the sebaceous glands is detached from the dermis (epidermal split). After grinding of the samples, the mRNA is prepared using Qiagen columns, in accordance with the suppliers' instructions. The material thus prepared is subjected to large-scale transcriptome analysis on an Affymetrix platform. The data are subsequently standardized and, after statistical analysis, the results produced are expressed in arbitrary expression units (see below) accompanied, for each piece of data, by a statistical value for presence of the transcript (presence=1; absence=0).

For the molecule `CN(CCOc1ccc(CC2SC(=O)NC2=O)cc1)c1ccccn1` (centres unmarked) [A, 5-{4-[2-(methylpyridin-2-ylamino)ethoxy]benzyl}thiazolidine-2,4-dione], the CYP2B15 relative induction in the data set with CYP2B15 [1] (0 hours) was 1; in the data set with CYP2B15 [1] (8 hours), 1.56; with CYP2B15 [1] (24 hours), 0.68; in the data set with CYP2B15 [1] (48 hours) it was 0.29; in the data set on CYP2B15 [1] (96 hours), 0.08. For the same molecule, the GPD1 relative induction with GPD1 [2] (0 hours) was found to be 1; with GPD1 [2] (8 hours), 18.52; with GPD1 [2] (24 hours) it was 12.53; in the data set with GPD1 [2] (48 hours) it was 6.93; in the data set on GPD1 [2] (96 hours) it was 3.42.

Take `CCCCCCCNC(=O)N(C)c1cccc(-c2ccc(C[C@H](OCC)C(=O)O)cc2)n1` [C, (S)-2-ethoxy-3-{4-[6-(3-heptyl-1-methylureido)pyridin-2-yl]phenyl}propionic acid]: the CYP2B15 relative induction in the data set on CYP2B15 [1] (0 hours) came to 1; with CYP2B15 [1] (8 hours), 0.61; with CYP2B15 [1] (24 hours) it was 0.18; in the data set on CYP2B15 [1] (48 hours), 0.11; with CYP2B15 [1] (96 hours), 0.04. Also, the GPD1 relative induction in the data set on GPD1 [2] (0 hours) was found to be 1; in the data set with GPD1 [2] (8 hours), 7.59; with GPD1 [2] (24 hours), 11.56; in the data set on GPD1 [2] (48 hours), 7.50; with GPD1 [2] (96 hours), 3.44.

With `CN(CCOc1ccc(CC2SC(=O)NC2=O)cc1)c1ccccn1` (centres unmarked) [Rosiglitazone], the “Expression after treatment with 1% Rosiglitazone” value in the data set with GPD1 [3] is reported as 243 arbitrary expression units; in the data set with CYP2B15 [4] (CYP2B15 mRNA (1387722_at), female FUZZY rats, once a day for 8 days, control condition 120), 35 arbitrary expression units. Also, the “Significance of the expression after treatment with 1% Rosiglitazone” value in the data set on CYP2B15 [4] (CYP2B15 transcript presence indicator, 8 days) is given as 1.
